Measurements reported in patent publication US8063071B2 (GlaxoSmithKline, LLC, priority 2007, dated 2011).
Counter-ions that a name gives are not always drawn.

Legend:
[1] = molecular target: T1, Recombinant human IKKβ (residues 1-737) (Homo sapiens, UniProt O14920); experiment: IKK2 assay (TR-FRET); format: biochemical; conditions: ATP 1 μM final, read-out: pIC50 against IKK2 (converted)
T1 construct: Recombinant human IKKβ (residues 1-737); GST (C); made in house
T1 sequence (O14920 1-737): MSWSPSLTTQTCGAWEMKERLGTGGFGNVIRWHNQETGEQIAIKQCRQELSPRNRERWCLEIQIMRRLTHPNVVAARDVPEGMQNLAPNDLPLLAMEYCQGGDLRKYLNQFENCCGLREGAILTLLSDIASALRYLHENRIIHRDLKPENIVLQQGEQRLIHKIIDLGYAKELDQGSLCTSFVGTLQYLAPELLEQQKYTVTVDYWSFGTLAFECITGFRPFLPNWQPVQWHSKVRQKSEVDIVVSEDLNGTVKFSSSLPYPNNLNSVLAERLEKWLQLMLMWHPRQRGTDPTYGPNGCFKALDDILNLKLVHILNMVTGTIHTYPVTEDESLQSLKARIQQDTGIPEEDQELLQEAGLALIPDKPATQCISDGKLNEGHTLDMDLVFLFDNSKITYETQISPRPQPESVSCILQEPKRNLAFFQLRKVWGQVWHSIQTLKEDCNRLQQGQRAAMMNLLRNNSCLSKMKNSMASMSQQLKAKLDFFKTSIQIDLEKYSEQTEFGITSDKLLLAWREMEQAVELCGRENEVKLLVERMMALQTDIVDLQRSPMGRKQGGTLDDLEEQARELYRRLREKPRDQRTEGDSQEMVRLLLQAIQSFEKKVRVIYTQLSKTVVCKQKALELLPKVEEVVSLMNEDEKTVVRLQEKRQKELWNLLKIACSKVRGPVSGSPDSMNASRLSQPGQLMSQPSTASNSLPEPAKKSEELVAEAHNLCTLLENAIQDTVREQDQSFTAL
Summary of the method: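 Baculovirus-expressed C-terminal GST-tagged IKKβ (0.5-5 nM final) in HEPES pH 7.4, MgCl2, CHAPS, DTT, BSA with 1.7% DMSO; 25 nM GST-IB substrate and 1 μM ATP, 15 min at room temperature. EDTA stop; phospho-Ser32/36 detected by Eu-antibody/APC-anti-GST TR-FRET, 665/620 nm ratio.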

[2] = test system: human monocyte stimulated cytokine production (TNF-α); experiment: Monocyte assay (LPS-stimulated TNF-α production); format: cell-based; conditions: 24 h, 200 ng/mL LPS, TNF-α by ELISA
Summary of the method: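 Human CD14+ monocytes were purified from blood and plated at 1×10^6 cells/mL in RPMI 1640 with 10% FBS. Compound was added 30 min before stimulation with 200 ng/mL LPS (0.1% DMSO final), followed by 24 hrs at 37 C. Supernatant TNF-α was measured by ELISA, and viability by trypan blue exclusion.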

Row | Compound | IC50 [1] [µM] | IC50 [2] [µM]
1 | CCS(=O)(=O)N1CCC(c2c[nH]c3c(C(N)=O)cc(-c4ccc(F)c(CNC5CCC5)c4)cc23)CC1 [Example 275, 5-{3-[(cyclobutylamino)methyl]-4-fluorophenyl}-3-[1-(ethylsulfonyl)-4-piperidinyl]-1H-indole-7-carboxamide trifluoroacetate] | ≤ 10 | ≤ 1.5
2 | CCS(=O)(=O)N1CCC(c2c[nH]c3c(C(N)=O)cc(-c4cccc(CN5CCCC5)c4)cc23)CC1 [Example 276, 3-[1-(ethylsulfonyl)-4-piperidinyl]-5-[3-(1-pyrrolidinylmethyl)phenyl]-1H-indole-7-carboxamide trifluoroacetate] | ≤ 10 | ≤ 1.5
3 | CCS(=O)(=O)N1CCC(c2c[nH]c3c(C(N)=O)cc(-c4cccc(C(C)NC5CCC5)c4)cc23)CC1 (stereo not shown) [Example 295, 5-{3-[1-(cyclobutylamino)ethyl]phenyl}-3-[1-(ethylsulfonyl)-4-piperidinyl]-1H-indole-7-carboxamide trifluoroacetate] | ≤ 10 | ≤ 1.5
4 | CCS(=O)(=O)N1CCC(c2c[nH]c3c(C(N)=O)cc(-c4cccc(C(C)N5CCCC5)c4)cc23)CC1 (stereo not shown) [Example 296, 3-[1-(ethylsulfonyl)-4-piperidinyl]-5-{3-[1-(1-pyrrolidinyl)ethyl]phenyl}-1H-indole-7-carboxamide trifluoroacetate] | ≤ 10 | ≤ 1.5
5 | CCS(=O)(=O)N1CCC(c2c[nH]c3c(C(N)=O)cc(-c4cccc(C5CSCCN5)c4)cc23)CC1 (stereo not shown) [Example 297, 3-[1-(ethylsulfonyl)-4-piperidinyl]-5-[3-(3-thiomorpholinyl)phenyl]-1H-indole-7-carboxamide trifluoroacetate] | ≤ 10 | ≤ 1.5
6 | CCS(=O)(=O)N1CCC(c2c[nH]c3c(C(N)=O)cc(-c4ccc(C5CNCCN5)s4)cc23)CC1 (stereo not shown) [Example 298, 3-[1-(ethylsulfonyl)-4-piperidinyl]-5-[5-(2-piperazinyl)-2-thienyl]-1H-indole-7-carboxamide trifluoroacetate] | ≤ 10 | ≤ 1.5
7 | CCS(=O)(=O)N1CCC(c2c[nH]c3c(C(N)=O)cc(-c4ccc(C5CNCCN5)cc4)cc23)CC1 (stereo not shown) [Example 299, 3-[1-(ethylsulfonyl)-4-piperidinyl]-5-[4-(2-piperazinyl)phenyl]-1H-indole-7-carboxamide trifluoroacetate] | ≤ 10 | > 1
8 | CCS(=O)(=O)N1CCC(c2c[nH]c3c(C(N)=O)cc(-c4cccc(C5CNCCN5)c4)cc23)CC1 (stereo not shown) [Example 300, 3-[1-(ethylsulfonyl)-4-piperidinyl]-5-[3-(2-piperazinyl)phenyl]-1H-indole-7-carboxamide trifluoroacetate] | ≤ 10 | > 1
9 | CCS(=O)(=O)N1CCC(c2c[nH]c3c(C(N)=O)cc(-c4ccc(N5CCOCC5)nn4)cc23)CC1 [Example 301, 3-[1-(ethylsulfonyl)-4-piperidinyl]-5-[6-(4-morpholinyl)-3-pyridazinyl]-1H-indole-7-carboxamide trifluoroacetate] | ≤ 10 | > 1
10 | CCS(=O)(=O)N1CCC(c2c[nH]c3c(C(N)=O)cc(-c4ccc(N5CCCC5)nn4)cc23)CC1 [Example 302, 3-[1-(ethylsulfonyl)-4-piperidinyl]-5-[6-(1-pyrrolidinyl)-3-pyridazinyl]-1H-indole-7-carboxamide trifluoroacetate] | ≤ 10 | > 1
11 | CCS(=O)(=O)N1CCC(c2c[nH]c3c(C(N)=O)cc(-c4cccc(CNCc5cccs5)c4)cc23)CC1 [Example 304, 3-[1-(ethylsulfonyl)-4-piperidinyl]-5-(3-{[(2-thienylmethyl)amino]methyl}phenyl)-1H-indole-7-carboxamide trifluoroacetate] | ≤ 10 | ≤ 1.5
12 | CCS(=O)(=O)N1CCC(c2c[nH]c3c(C(N)=O)cc(-c4cccc(CNCc5ccc(C)o5)c4)cc23)CC1 [Example 305, 3-[1-(ethylsulfonyl)-4-piperidinyl]-5-[3-({[(5-methyl-2-furanyl)methyl]amino}methyl)phenyl]-1H-indole-7-carboxamide trifluoroacetate] | ≤ 10 | ≤ 1.5
13 | CCS(=O)(=O)N1CCC(c2c[nH]c3c(C(N)=O)cc(-c4cc(F)cc(CNC[C@@H]5CCCO5)c4)cc23)CC1 [Example 312, 3-[1-(ethylsulfonyl)-4-piperidinyl]-5-[3-fluoro-5-({[(2S)-tetrahydro-2-furanylmethyl]amino}methyl)phenyl]-1H-indole-7-carboxamide trifluoroacetate] | ≤ 10 | ≤ 1.5

The remaining lines, values ahead:

Row | IC50 [1] [µM] | IC50 [2] [µM] | Compound
14 | ≤ 10 | ≤ 1.5 | CCS(=O)(=O)N1CCC(c2c[nH]c3c(C(N)=O)cc(-c4cccc(C(C)NC)c4)cc23)CC1 (stereo not shown) [Example 292, 3-[1-(ethylsulfonyl)-4-piperidinyl]-5-{3-[1-(methylamino)ethyl]phenyl}-1H-indole-7-carboxamide trifluoroacetate]
15 | ≤ 10 | ≤ 1.5 | CCS(=O)(=O)N1CCC(c2c[nH]c3c(C(N)=O)cc(-c4cccc(C(C)NC(C)C)c4)cc23)CC1 (stereo not shown) [Example 293, 3-[1-(ethylsulfonyl)-4-piperidinyl]-5-(3-{1-[(1-methylethyl)amino]ethyl}phenyl)-1H-indole-7-carboxamide trifluoroacetate]
16 | ≤ 10 | ≤ 1.5 | CCS(=O)(=O)N1CCC(c2c[nH]c3c(C(N)=O)cc(-c4cccc(C(C)NCC(C)C)c4)cc23)CC1 (stereo not shown) [Example 294, 3-[1-(ethylsulfonyl)-4-piperidinyl]-5-(3-{1-[(2-methylpropyl)amino]ethyl}phenyl)-1H-indole-7-carboxamide trifluoroacetate]
17 | ≤ 10 | > 1 | CCS(=O)(=O)N1CCC(c2c[nH]c3c(C(N)=O)cc(-c4ccccc4CNC)cc23)CC1 [Example 303, 3-[1-(ethylsulfonyl)-4-piperidinyl]-5-{2-[(methylamino)methyl]phenyl}-1H-indole-7-carboxamide trifluoroacetate]
18 | ≤ 10 | ≤ 1.5 | CCS(=O)(=O)N1CCC(c2c[nH]c3c(C(N)=O)cc(-c4cccc(CNC[C@H]5CCCO5)c4)cc23)CC1 [Example 306, 3-[1-(ethylsulfonyl)-4-piperidinyl]-5-[3-({[(2R)-tetrahydro-2-furanylmethyl]amino}methyl)phenyl]-1H-indole-7-carboxamide trifluoroacetate]
19 | ≤ 10 | ≤ 1.5 | CCS(=O)(=O)N1CCC(c2c[nH]c3c(C(N)=O)cc(-c4cccc(CNC[C@@H]5CCCO5)c4)cc23)CC1 [Example 307, 3-[1-(ethylsulfonyl)-4-piperidinyl]-5-[3-({[(2S)-tetrahydro-2-furanylmethyl]amino}methyl)phenyl]-1H-indole-7-carboxamide trifluoroacetate]
20 | ≤ 10 | ≤ 1.5 | CCS(=O)(=O)N1CCC(c2c[nH]c3c(C(N)=O)cc(-c4cccc(CNCC(C)(C)C)c4)cc23)CC1 [Example 308, 5-(3-{[(2,2-dimethylpropyl)amino]methyl}phenyl)-3-[1-(ethylsulfonyl)-4-piperidinyl]-1H-indole-7-carboxamide trifluoroacetate]
21 | ≤ 10 | ≤ 1.5 | CCC(C)CNCc1cccc(-c2cc(C(N)=O)c3[nH]cc(C4CCN(S(=O)(=O)CC)CC4)c3c2)c1 (stereo not shown) [Example 309, 3-[1-(ethylsulfonyl)-4-piperidinyl]-5-(3-{[(2-methylbutyl)amino]methyl}phenyl)-1H-indole-7-carboxamide]
22 | ≤ 10 | ≤ 1.5 | CC[C@H](C)CNCc1cccc(-c2cc(C(N)=O)c3[nH]cc(C4CCN(S(=O)(=O)CC)CC4)c3c2)c1 [Example 310, 3-[1-(ethylsulfonyl)-4-piperidinyl]-5-[3-({[(2S)-2-methylbutyl]amino}methyl)phenyl]-1H-indole-7-carboxamide]
23 | ≤ 10 | ≤ 1.5 | CCS(=O)(=O)N1CCC(c2c[nH]c3c(C(N)=O)cc(-c4cccc(CN[C@H](C)C(C)(C)C)c4)cc23)CC1 [Example 311, 3-[1-(ethylsulfonyl)-4-piperidinyl]-5-[3-({[(1R)-1,2,2-trimethylpropyl]amino}methyl)phenyl]-1H-indole-7-carboxamide]
